Results reported in publication PMC8948676, “Dihydropyridines Potentiate ATP-Induced Currents Mediated by the Full-Length Human P2X5 Receptor” (Molecules, 2022).

Key:
[1] = molecular target: T1, full-length human P2X5 receptor (hP2X5^FL) (Homo sapiens, UniProt Q93086, F216L/F232L); test: cell-based; design: gene P2RX5
[2] = molecular target: T1, full-length human P2X5 receptor (hP2X5^FL); test: two-microelectrode voltage clamp, Xenopus laevis oocytes (agonist concentration-response); assay type: cell-based; design: gene P2RX5; His-hP2X5^FL, full-length 444 residues including exon 10 (residues 328–349), N-terminal hexahistidine tag; homotrimer
[3] = molecular target: T1, full-length human P2X5 receptor (hP2X5^FL); test: two-microelectrode voltage clamp, Xenopus laevis oocytes; potentiation of ATP-induced current at […]; assay type: cell-based; design: gene P2RX5; His-hP2X5^FL, full-length 444 residues including exon 10 (residues 328–349), N-terminal hexahistidine tag; homotrimer

T1 sequence (Q93086 whole entry F216L/F232L, the tested form may be a part): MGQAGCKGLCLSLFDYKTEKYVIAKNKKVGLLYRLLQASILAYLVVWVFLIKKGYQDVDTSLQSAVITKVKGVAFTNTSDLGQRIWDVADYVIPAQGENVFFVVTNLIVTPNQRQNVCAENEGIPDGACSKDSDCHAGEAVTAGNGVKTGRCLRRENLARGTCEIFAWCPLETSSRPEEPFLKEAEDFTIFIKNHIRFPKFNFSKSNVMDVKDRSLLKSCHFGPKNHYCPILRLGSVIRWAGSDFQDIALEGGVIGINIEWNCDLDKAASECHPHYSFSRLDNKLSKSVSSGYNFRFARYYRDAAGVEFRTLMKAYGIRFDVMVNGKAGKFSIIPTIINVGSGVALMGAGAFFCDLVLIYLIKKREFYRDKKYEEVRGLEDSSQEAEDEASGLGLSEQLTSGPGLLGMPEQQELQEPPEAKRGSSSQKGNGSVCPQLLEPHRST

With `Nc1ncnc2c1ncn2[C@@H]1O[C@H](COP(=O)(O)OP(=O)(O)OP(=O)(O)O)[C@@H](O)[C@H]1O` [ATP] the EC50 [1] was about 39 µM.

`Nc1ncnc2c1ncn2[C@@H]1O[C@H](COP(=O)(O)OP(=O)(O)OP(=O)(O)O)[C@@H](OC(=O)c2ccc(C(=O)c3ccccc3)cc2)[C@H]1O` [BzATP] was tested, and the “two-microelectrode voltage clamp, Xenopus laevis oocytes (agonist concentration-” value [2] was “BzATP, displayed a higher affinity for hP2X5^FL than ATP but a lower efficacy”.

For `COC(=O)C1=C(C)NC(C)=C(C(=O)OC(C)C)C1c1cccc2nonc12` (stereo not drawn) [isradipine], the “two-microelectrode voltage clamp, Xenopus laevis oocytes; potentiation of ATP-in” value [3] was “In contrast, isradipine and nimodipine stimulated the ATP-induced currents”.
